The structures appear in SMILES notation. Where only a bound is given, the exact number is not on record here.

The test system of this test is HCC1569 (CCNE1-amplified breast cancer cell line). As to the kind of experiment: Cell Proliferation Assay (CellTiter-Glo, 7 days). It counts as cell-based. As for the experimental part: The sensitivity of cancer cell lines with normal or elevated CCNE1 levels to test compounds was evaluated in a cell proliferation assay. Cell lines were maintained in ATCC-recommended culture media supplemented with 10% FBS and 1% penicillin/streptomycin in a humidified 5% CO2 incubator. All test compounds were stored as 20 mM DMSO stock solutions.
On Day 0, CCNE1-wild type (wt) and CCNE1-amplified (amp) cells were seeded into 384-well plates and incubated for 16 to 24 hours in a humidified 5% CO2 incubator. On Day 1, test compounds were dispensed into wells at specified concentrations (n=2), with DMSO volume normalized to the highest concentration. Plates with compound-treated cells were incubated for 7 days in a humidified 5% CO2 incubator.
On Day 7, plates were removed from the incubator and equilibrated to room temperature. Relative inhibition was assessed by adding CellTiter-Glo reagent. Data were plotted as a percentage of the DMSO control for each compound in each cell line. IC50 values were calculated using a four-parameter nonlinear regression model (GraphPad Prism).
Background: Cellular ATP, detected with luciferase, serves as a proxy for viable cell number.
The compound `Cc1ccc2[nH]ncc2c1-n1c(N)c2c3c(c(C)c(C)nc31)C=CNC2=O` [Compound 126] came in with an IC50 of 666 nM.

Take `Cc1nc2c3c(c1C)C=CNC(=O)c3c(N)n2-c1c(Cl)cc(F)c2[nH]ncc12` [Compound 136]: the IC50 is above 1000 nM. Take `Cc1nc2c3c(c1C)C=CNC(=O)c3c(N)n2-c1c(Cl)c(F)cc2[nH]ncc12` [Compound 137]: the IC50 worked out at 566 nM. `Cc1nc2c3c(c1C)C=CNC(=O)c3c(N)n2-c1c(C)c(F)cc2[nH]ncc12` [Compound 138] had an IC50 above 1000 nM. With `Cc1cc2c(C(N)=O)c(N)n(-c3c(C)ccc(O)c3C)c2nc1C` [Rp6306, reference compound] the figure was 18 nM.

By IC50 is commonly meant the midpoint of a concentration-inhibition curve. A low value points to greater potency in that assay.

The record behind these values is US20260317335A1, “COMPOUNDS OF FUSED PYRROLE RINGS OR FUSED PYRIDINE RINGS” (PHARMAENGINE, INC., priority 2023, published 2026).
